Where a SMILES comes first, the peptide text is derived from it. [ ]: non-standard residue; d: D form.
Key:
[1] = biological target: T1, Solute carrier organic anion transporter family member 1A4 (Mus musculus, UniProt Q9EP96); test: (§1) TP_TRANSPORTER: uptake in Xenopus laevis oocytes; assay type: functional, cell-based; settings: oocyte
T1 sequence (Q9EP96 whole entry): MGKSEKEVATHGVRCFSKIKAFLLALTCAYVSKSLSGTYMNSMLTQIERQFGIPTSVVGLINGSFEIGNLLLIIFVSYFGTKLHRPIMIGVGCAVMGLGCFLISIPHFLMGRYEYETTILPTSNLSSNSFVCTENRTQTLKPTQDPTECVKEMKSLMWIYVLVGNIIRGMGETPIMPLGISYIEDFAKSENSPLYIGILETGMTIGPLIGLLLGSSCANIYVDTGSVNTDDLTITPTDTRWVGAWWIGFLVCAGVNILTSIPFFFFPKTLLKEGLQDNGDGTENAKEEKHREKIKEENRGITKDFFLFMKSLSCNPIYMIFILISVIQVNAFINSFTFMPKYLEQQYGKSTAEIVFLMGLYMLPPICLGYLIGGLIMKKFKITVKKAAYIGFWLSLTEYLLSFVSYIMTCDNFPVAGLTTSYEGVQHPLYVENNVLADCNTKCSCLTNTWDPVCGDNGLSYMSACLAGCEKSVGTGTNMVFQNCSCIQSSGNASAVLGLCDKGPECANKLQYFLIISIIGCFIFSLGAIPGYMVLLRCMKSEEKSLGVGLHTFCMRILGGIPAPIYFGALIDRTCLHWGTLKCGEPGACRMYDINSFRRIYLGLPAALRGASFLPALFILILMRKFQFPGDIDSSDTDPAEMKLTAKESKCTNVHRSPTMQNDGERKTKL

[2] = substrate: C[C@H]1O[C@@H](O[C@H]2[C@@H](O)C[C@H](O[C@H]3[C@@H](O)C[C@H](O[C@H]4CC[C@@]5(C)[C@H](CC[C@@H]6[C@@H]5C[C@@H](O)[C@]5(C)[C@@H](C7=CC(=O)OC7)CC[C@]65O)C4)O[C@@H]3C)O[C@@H]2C)C[C@H](O)[C@@H]1O; test: as §1; assay type: functional, cell-based, Oocyte

Q: How did the Activity [1] turn out when `CC(C)C[C@@H]1NC(=O)[C@@H](C(C)C)NC(=O)[C@@H]2CCCN2C(=O)[C@@H](CC(=O)O)NC(=O)[C@@H](Cc2c[nH]c3ccccc23)NC1=O` [BQ-123] (cyclo(L[dW][dD]P[dV])) was run?
A: The Activity was “substrate [+]”.

Q: How did the Activity [1] turn out when `C[C@]12CC[C@@H]3c4ccc(OS(=O)(=O)O)cc4CC[C@H]3[C@@H]1CCC2=O` [ESTRONE SULFURIC ACID] was run?
A: The Activity was “substrate [+]”.

Q: For `C[C@@H]1O[C@@H](O[C@H]2C[C@@H](O)[C@]3(CO)[C@H]4[C@H](O)C[C@]5(C)[C@@H](C6=CC(=O)OC6)CC[C@]5(O)[C@@H]4CC[C@]3(O)C2)[C@H](O)[C@H](O)[C@H]1O` [OUABAIN], which Activity [1] is on record?
A: The Activity was “substrate [+]”.

Q: With `C[C@]12CC[C@H](OS(=O)(=O)O)CC1=CC[C@@H]1[C@@H]2CC[C@]2(C)C(=O)CC[C@@H]12` [PRASTERONE SULFURIC ACID] as the molecule, how does the Activity [1] read?
A: Its Activity is “substrate [+]”.

Q: How did the Activity [1] turn out when `O=C1OC(c2ccc(O)c(S(=O)(=O)[O-])c2)(c2ccc(O)c(S(=O)(=O)[O-])c2)c2c(Br)c(Br)c(Br)c(Br)c21.[Na+].[Na+]` [SULFOBROMOPHTHALEIN SODIUM] was run?
A: Its Activity is “substrate [+]”.

B1: Solute carrier organic anion transporter family member 1A4 (Mus musculus) (protein)
chain: MGKSEKEVATHGVRCFSKIKAFLLALTCAYVSKSLSGTYMNSMLTQIERQFGIPTSVVGLINGSFEIGNLLLIIFVSYFGTKLHRPIMIGVGCAVMGLGCFLISIPHFLMGRYEYETTILPTSNLSSNSFVCTENRTQTLKPTQDPTECVKEMKSLMWIYVLVGNIIRGMGETPIMPLGISYIEDFAKSENSPLYIGILETGMTIGPLIGLLLGSSCANIYVDTGSVNTDDLTITPTDTRWVGAWWIGFLVCAGVNILTSIPFFFFPKTLLKEGLQDNGDGTENAKEEKHREKIKEENRGITKDFFLFMKSLSCNPIYMIFILISVIQVNAFINSFTFMPKYLEQQYGKSTAEIVFLMGLYMLPPICLGYLIGGLIMKKFKITVKKAAYIGFWLSLTEYLLSFVSYIMTCDNFPVAGLTTSYEGVQHPLYVENNVLADCNTKCSCLTNTWDPVCGDNGLSYMSACLAGCEKSVGTGTNMVFQNCSCIQSSGNASAVLGLCDKGPECANKLQYFLIISIIGCFIFSLGAIPGYMVLLRCMKSEEKSLGVGLHTFCMRILGGIPAPIYFGALIDRTCLHWGTLKCGEPGACRMYDINSFRRIYLGLPAALRGASFLPALFILILMRKFQFPGDIDSSDTDPAEMKLTAKESKCTNVHRSPTMQNDGERKTKL
Q: Which Km [2] does the source give for B1 here?
A: The Km was 5.7 µM.
